# From patent publication US20240174693A1, “SOMATOSTATIN RECEPTOR SUBTYPE 4 (SSTR4) AGONISTS AND THEIR APPLICATIONS” (Humanwell Pharmaceutical US, priority 2022, published 2024)
# Legend:
# [1] = Metabolic stability in liver microsomes (rat); type: in vitro ADME; details: for CLint scaled at 1 μM: pH 7.4; for half-life at 1 μM: pH 7.4, read-out: Metabolic stability T½
# Description: Buffers A-C were prepared for use in the metabolic study. The buffers were as follows: Buffer A: 1.0 L of 0.1 M monobasic Potassium Phosphate buffer containing 1.0 mM EDTA; Buffer B: 1.0 L of 0.1 M Dibasic Potassium Phosphate buffer containing 1.0 mM EDTA; and Buffer C: 0.1 M Potassium Phosphate buffer, 1.0 mM EDTA, pH 7.4 by titrating 700 mL of buffer B with buffer A while monitoring with the pH meter.
# Ketanserin was used as the reference compound. Reference compound and test compound spiking solutions (500 μM spiking solution) were prepared by adding 10 μL of 10 mM DMSO stock solution into 190 μL ACN. 1.5 μL of 500 μM spiking solution (0.75 mg/mL) and 18.75 μL of 20 mg/mL liver microsomes were added into 479.75 μL of Buffer C on ice.
# A 6 mM NADPH stock solution was prepared by dissolving an appropriate amount of NADPH into buffer C. 30 μL of 1.5 μM spiking solution containing 0.75 mg/mL microsomes solution was dispensed to the assay plates designated for different time points (0-, 5-, 15-, 30-, 45-min) on ice. […] All the other plates were pre-incubated at 37° C. for 5 minutes. 15 μL of 6 mM NADPH stock solution was added to the plates to start the reaction and time. At 5-min, 15-min, 30-min, and 45-min, 135 μL of ACN containing internal standard were added to the wells of corresponding plates, respectively, to stop the reaction. […]
# CYP1A2 = target: T1, CYP1A2 (Homo sapiens, UniProt P05177); test: CYP inhibition in HLM, CYP1A2; type: in vitro ADME; details: read-out: CYP inhibition (IC50 um) 1A2
# T1 construct: from tissue; host or cells: liver microsomes (HLM)
# T1 sequence (P05177 1-516): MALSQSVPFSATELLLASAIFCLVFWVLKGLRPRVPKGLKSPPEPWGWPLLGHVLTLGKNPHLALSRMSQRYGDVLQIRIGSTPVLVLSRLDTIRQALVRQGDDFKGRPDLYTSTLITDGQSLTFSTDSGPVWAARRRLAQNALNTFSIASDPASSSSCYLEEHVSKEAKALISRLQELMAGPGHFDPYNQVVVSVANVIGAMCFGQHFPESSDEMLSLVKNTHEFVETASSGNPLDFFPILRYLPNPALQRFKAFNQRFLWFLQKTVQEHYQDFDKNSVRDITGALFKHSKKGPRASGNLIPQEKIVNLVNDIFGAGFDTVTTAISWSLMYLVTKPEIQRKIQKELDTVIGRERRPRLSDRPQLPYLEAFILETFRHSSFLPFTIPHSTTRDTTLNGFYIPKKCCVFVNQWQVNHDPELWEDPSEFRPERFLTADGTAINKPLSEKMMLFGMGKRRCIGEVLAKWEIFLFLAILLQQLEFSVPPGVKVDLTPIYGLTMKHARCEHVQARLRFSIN
# Description: 0.1 M potassium phosphate buffer (K-buffer), pH 7.4 was preheated. K-buffer was prepared by mixing 9.5 mL Stock A into 40.5 mL Stock B. The total volume was brought to 500 mL with Milli-Q water. The buffer was titrated with KOH or H3PO4 to pH 7.4. Stock A (1 M monobasic potassium phosphate) was prepared by adding 136.5 g of monobasic potassium phosphate into 1 L of Milli-Q water. Stock B (1 M dibasic potassium phosphate) was prepared by adding 174.2 g of dibasic potassium phosphate in 1 L of Milli-Q water.
# Serial dilution for test compound and reference inhibitors (400×) was prepared in a 96-well plate. 8 μL of 10 mM test compounds was transferred to 12 μL of ACN. Inhibitor spiking solution was prepared for CYP1A2, CYP2C9 and CYP2D6 in cocktail by adding 12 μL of 1 mM α-Naphthoflavon, 10 μL of 40 mM Sulfaphenazole, 10 μL of 10 mM Quinidine, and 8 μL of DMSO. Individual inhibitor spiking solution for CYP3A4 and CYP2C19 was prepared by adding 8 μL of DMSO stock to 12 μL of ACN. 1:3 serial dilutions were performed in DMSO:ACN mixture (v/v: 40:60).
# NADPH cofactor was prepared by dissolving 66.7 mg NADPH in 10 mL 0.1 M K-buffer, pH7.4. 4×substrate (2 mL for each isoform) was prepared. HLM was added were required on ice. 0.2 mg/mL HLM solution was prepared using 10 μL of 20 mg/mL to 990 μL of 0.1 M K-buffer on ice. 400 μL of 0.2 mg/mL HLM were added to the assay wells and then 2 μL of 400×test compound set were added into the designated wells on ice. 200 μL of 0.2 mg/mL HLM was added to the assay wells and followed by 1 μL of serially diluted reference inhibtor solution into the designated wells on ice. The following solutions were added in duplicated in a 96-well plate on ice: 30 μL of 2×test compound and reference compound in 0.2 mg/mL HLM solution and 15 μL of 4×substrate solution. The 96-well assay plate and NADPH solution were pre-incubated at 37° C. for 5 minutes. 15 μL of pre-warmed 8 mM NADPH solution was added to into the assay plates to initiate the reaction. The assay plate was incubated at 37° C. 5 mins, 10 mins, and 45 mins. […]
# in vitro = details: rat, hepatocytes
# Description: Vials with hepatocytes were removed from a liquid nitrogen storage unit and immediately placed in a 37±1° C. shaking water bath for 2 min±15 sec. The hepatocytes were poured into 50 mL of hepatocytes thawing medium, mixed gently, and centrifuged at 500 rpm for 3 minutes. After centrifugation, the supernatant was carefully aspirated without disturbing the pellet. 10× the volume of pre-warmed KHB buffer (Krebs-Henseleit buffer, Sigma Cat #K3753-10X1L) with 5.6 g/L HEPES was used to resuspend the cell pellet. The pellet mixture was centrifuged at 500 rpm for 3 minutes, aspirated, and the supernatant discarded without disturbing the cell pellet. The cell viability and yield were determined. The hepatocytes were counted, and the cell suspensions were diluted to the appropriate cell density. The viable cell density was 2×10^6 cells/mL. The hepatocyte solution was placed on ice until it was used.
# Two dosing solutions of prewarmed KHB (1% DMSO) were prepared. 200 μM spiking solution was prepared by adding 20 μL of substrates stock solution (10 mM) into 980 μL of DMSO. Two dosing solutions were prepared by adding 10 μL of 200 μM spiking solution into 990 μL of KHB (2 μM after dilution). The dosing solution was centrifuged at 5594 g for 15 min (Thermo Multifuge×3R). 50 μL of pre-warmed 2×dosing solution was added to the wells designated for the different time points. […] After the addition of the hepatocytes, the timer was started. The assay was placed in an incubator at 37° C. 100 μL of ACN containing IS was added to the wells designed for 0 min, the wells were mixed gently, then 50 μL of pre-warmed hepatocytes solution (2×10^6 cells/mL) was added. The wells were sealed. […] Next, the wells were sealed. After quenching, the plates were shaken on a vibrator (IKA, MTS 2/4) for 10 min at 600 rpm. The plate was sonicated for 2 min and centrifuged at 5594 g for 15 min (Thermo Multifuge×3R). 50 μL of the supernatant was transferred from each well into a 96-well sample plate containing 50 μL of ultra pure water (Millipore, ZMQS50F01) for LC/MS analysis.
# SSTR4 = target: T2, SSTR4 (Homo sapiens, UniProt P31391); test: FLIPR assay for agonists, HEK293/Gα15/SSTR4 cells; type: cell-based; details: read-out: SSTR4 Agonist Activity in FLIPR Assay EC50
# T2 construct: host or cells: HEK293/Gα15/SSTR4
# Description: The study was carried out at HD Biosciences (Shanghai, China) according to the following steps.
# Step 1: Test compounds were diluted to a 400×stock solution in DMSO in a 384-well plate.
# Step 2: 1 μL of the compound solution was transferred from Step 1 to 79 μL of assay buffer, creating a 5×working solution in the 384-well plate using the Bravo method.
# Step 3: HEK293/Gα15/SSTR1-5 cells were cultured in DMEM medium (10% FBS).
# Step 4: When cells reached 80% confluence, the cells were separated using 0.25% trypsin-EDTA.
# Step 5: The cell density was measured and the cells diluted to 1×10^6/mL using DMEM (10% FBS).
# Step 6: 30 μL of cells were dispensed into each well of a Matrigel-coated 384-well plate (Corning 3764#) using a multi-channel pipette (30,000 cells per well) and cultured for 20-24 hours at 37° C. and 5% CO2.
# Step 7: 10 μL of dye was added to each well in the cell plate prepared in Step 6.
# Step 8: The dye and cells were incubated in the dark at 37° C. and 5% CO2 for 1 hour.
# Step 9: After 1 hour, the FLIPR program was loaded, the pipette tips placed cell plate and compound plate (from Step 2) into the machine, and the run button was pressed. The program added 10 μL to 40 μL to the cell plate. FLIPR was used to read the plate at room temperature according to the specified settings and the data was saved.
# SD rats = test: SD rat chronic constriction injury (CCI) model; type: in vivo; details: mechanical pain threshold 1, 2, 4 h post-administration, compound 8 single subcutaneous injection
# Text: This model involves the use of a non-absorbable 5-0 suture to loosely ligate the sciatic nerve, causing slight compression of its outer sheath. Mechanical compression by the suture induces axonal damage, leading to abnormal discharge. Additionally, the local stimulation from the ligature induces the release of inflammatory mediators.
# Furthermore, CCI selectively damages the larger myelinated fibers of the sciatic nerve while preserving most of the unmyelinated C fibers responsible for transmitting pain.
# After initial screening, rats are sequentially numbered and randomly assigned to groups based on the numbering, using a random grouping method. Experimental groups are established based on trial conditions.
# T2 sequence (P31391 whole entry): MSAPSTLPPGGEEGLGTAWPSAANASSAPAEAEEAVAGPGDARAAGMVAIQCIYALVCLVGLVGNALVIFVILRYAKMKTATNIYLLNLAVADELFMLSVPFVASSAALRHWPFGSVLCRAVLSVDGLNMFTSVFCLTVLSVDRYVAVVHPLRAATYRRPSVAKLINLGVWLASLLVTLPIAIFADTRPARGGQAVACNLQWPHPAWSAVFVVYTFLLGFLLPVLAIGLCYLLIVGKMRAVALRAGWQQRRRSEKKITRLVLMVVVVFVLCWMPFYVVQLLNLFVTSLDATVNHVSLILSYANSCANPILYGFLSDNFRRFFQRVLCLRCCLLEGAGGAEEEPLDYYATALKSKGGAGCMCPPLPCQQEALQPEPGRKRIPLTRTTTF
Structure (SMILES),CLint scaled at 1 μM [1] [mL/min/kg],half-life at 1 μM [1] [min],IC50 (CYP1A2) [µM],CLint scaled at 1 μM (in vitro) [mL/min/kg],half-life at 1 μM (in vitro) [min],EC50 (SSTR4) [nM],Effect on neuropathic pain in CCI model (SD rats)
"CC(C)(NC(=O)[C@H]1[C@@H]2CNC[C@H]1C2)c1nc(C2CC2)c2ccccn12 [Compound 9, (1R,5S,6r)-N-(2-(1-cyclopropylimidazo[1,5-a]pyridin-3-yl)propan-2-yl)-3-azabicyclo[3.1.1]heptane-6-carboxamide]",1.73,1430,> 10,–,–,–,–
"CC(C)(NC(=O)[C@H]1[C@@H]2CNC[C@H]1C2)c1ncc2c(Cl)cccn12 [Compound 7, (1R,5S,6r)-N-(2-(8-chloroimidazo[1,5-a]pyridin-3-yl)propan-2-yl)-3-azabicyclo[3.1.1]heptane-6-carboxamide]",18.4,135,> 10,5.4,600,–,–
"CC(C)(NC(=O)[C@H]1[C@@H]2CNC[C@H]1C2)c1ncc2c(Br)cccn12 [Compound 8, (1R,5S,6r)-N-(2-(8-bromoimidazo[1,5-a]pyridin-3-yl)propan-2-yl)-3-azabicyclo[3.1.1]heptane-6-carboxamide]",2.98,583,> 10,6.01,540,3.33,significantly affected the SD rat CCI model
